According to patent US20240166612A1, “ARYLTHIOETHER ACETAMIDE AND RELATED COMPOUNDS AND THEIR USE IN TREATING MEDICAL CONDITIONS” (X-Biotix Therapeutics, Inc., priority 2021, published 2024):
In brackets after ≈: the same amount, converted by molar mass.

How the values were obtained:
Type in all cases: cell-based
[1] = system: P. aeruginosa PAO1 ΔmexABoprM; test: Broth microdilution MIC, P. aeruginosa PAO1 ΔmexABoprM; details: Pseudomonas aeruginosa, PAO1, 18 h, read-out: PAO1 KO MIC
Method: (§1) Exemplary compounds from the above Examples were tested to determine their minimum inhibitory concentration (MIC) for exemplary strains of Escherichia and Pseudomonas bacteria using broth microdilution methods. Assay procedures and results are described below.
(§2) Broth microdilution assays were conducted according to Clinical and Laboratory Standards Institute guidelines (CLSI, M07-A^11: Clinical and Laboratory Standards Institute. Methods for Dilution Antimicrobial Susceptibility Tests for Bacteria that Grow Aerobically; Approved Standard-11th Edition. Wayne, PA: CLSI, 2018). Briefly, bacterial suspensions were adjusted to a density equivalent to a 0.5 McFarland standard and diluted in sterile, cation-adjusted Mueller-Hinton broth (Beckton Dickinson) to yield a final inoculum between 2×10^5 and 8×10^5 colony-forming units (CFU)/mL. An inoculum volume of 98 μL was added to wells containing 2 μL of 2-fold serial dilutions of drug (prepared in DMSO). All inoculated microdilution trays were incubated in ambient air at 37° C. for 18 h. […] Performance of the assay was monitored by the use of laboratory quality-control strains (S. aureus ATCC 29213 and P. aeruginosa ATCC 27853) and levofloxacin, a compound with a defined MIC spectrum, in accordance with CLSI guidelines (CLSI, M100Ed29: Clinical and Laboratory Standards Institute. Performance Standards for Antimicrobial Susceptibility Testing, 29th Edition. Wayne, PA: CLSI, 2018).
(§3) Multiple enterobacteriaceae strains were tested, including both wild-type strains and multi-drug resistance pump deficient mutants. Specific strains tested included the following: • Wild-type P. aeruginosa PAO1, • P. aeruginosa PAO1 ΔmexABoprM—Disabled multi-drug efflux system Δ(MexAB-OprM), • P. aeruginosa PAO397—PAO1Δ(mexAB-oprM) Δ(mexCD-oprJ) Δ(mexEF-oprN) Δ(mexJK) Δ(mexXY) ΔopmH, • P. aeruginosa LESB58—Clinical isolate; colistin-resistant, isolated in the United Kingdom in 1988 from a patient with cystic fibrosis • E. coli JW0452-3 (BW25113 JacrA::kan)—Disabled multi-drug efflux system (AcrAB-TolC).
(§4) Experimental results are provided in Table 11, which provides MIC values for wild-type P. aeruginosa PAO1 (“PAO1 WT MIC”), P. aeruginosa PAO ΔmexABoprM (“PAO1 KO MIC”), P. aeruginosa PAO397 (“PAO397 KO MIC”), P. aeruginosa LESB58 (“LESB58”), and E. coli JW0452-3 (BW25113 JacrA::kan) (“E. coli KO MIC”).

[2] = system: Wild-type P. aeruginosa PAO1; test: Broth microdilution MIC, wild-type P. aeruginosa PAO1; details: Pseudomonas aeruginosa; wild-type P. aeruginosa PAO1, 37° C., 18 h; read-out: PAO1 WT MIC
Method: as §1, §2, §3, §4

[3] = system: P. aeruginosa LESB58; test: Broth microdilution MIC, P. aeruginosa LESB58; details: Pseudomonas aeruginosa; P. aeruginosa LESB58 clinical isolate, colistin-resistant, 37° C., 18 h
Method: as §1, §2, §3, §4

[4] = system: P. aeruginosa PAO397; test: Broth microdilution MIC, P. aeruginosa PAO397; details: Pseudomonas aeruginosa, PAO397, 18 h, read-out: PAO397 KO MIC
Method: as §1, §2, §3, §4

Row | SMILES | MIC [1] [µg/mL] | MIC [2] [µg/mL] | MIC [3] [µg/mL] | MIC [4] [µg/mL]
1 | N#Cc1ccc(CN(Cc2nnc(N)o2)C(=O)COc2cc(F)cc(F)c2Cl)cn1 [Compound No. 18, N-((5-amino-1,3,4-oxadiazol-2-yl)methyl)-2-(2-chloro-3,5-difluorophenoxy)-N-((6-cyanopyridin-3-yl)methyl)acetamide] | 1 to 16 (≈ 2.3 to 36.8 µM) | > 64 | > 64 | 1 to 16 (≈ 2.3 to 36.8 µM)
2 | N#Cc1ccc(CN(Cc2nnc(N)o2)C(=O)COc2cc(F)cc(F)c2Cl)c(F)c1 [Compound No. 31, N-[(5-Amino-1,3,4-oxadiazol-2-yl)methyl]-2-(2-chloro-3,5-difluoro-phenoxy)-N-[(4-cyano-2-fluoro-phenyl)methyl]acetamide] | 1 to 16 (≈ 2.21 to 35.4 µM) | > 64 | 1 to 16 (≈ 2.21 to 35.4 µM) | < 1
3 | N#Cc1ccc(CN(Cc2nnc(N)o2)C(=O)CSc2cc(CCO)ccc2Cl)c(F)c1 [Compound No. 63, N-[(5-Amino-1,3,4-oxadiazol-2-yl)methyl]-2-[2-chloro-5-(2-hydroxyethyl)phenyl]sulfanyl-N-[(4-cyano-2-fluoro-phenyl)methyl]acetamide] | 1 to 16 (≈ 2.1 to 33.6 µM) | > 64 | 16 to 64 (≈ 33.6 to 134 µM) | < 1
4 | CCc1c(F)cc(F)cc1OCC(=O)N(Cc1nnc(N)o1)Cc1ccc(C#N)cc1F [Compound No. 64, N-[(5-Amino-1,3,4-oxadiazol-2-yl)methyl]-N-[(4-cyano-2-fluoro-phenyl)methyl]-2-(2-ethyl-3,5-difluoro-phenoxy)acetamide] | < 1 | 16 to 64 (≈ 35.9 to 144 µM) | 1 to 16 (≈ 2.25 to 35.9 µM) | < 1
5 | N#Cc1ccc(CN(Cc2nnc(O)o2)C(=O)CSc2ccccc2Cl)cc1 [Compound No. 66, 2-(2-Chlorophenyl)sulfanyl-N-[(4-cyanophenyl)methyl]-N-[(5-hydroxy-1,3,4-oxadiazol-2-yl)methyl]acetamide] | 1 to 16 (≈ 2.41 to 38.6 µM) | > 64 |  | < 1
6 | N#Cc1ccc(CN(Cc2nnc(CN)o2)C(=O)CSc2ccccc2Cl)cc1 [Compound No. 67, N-[[5-(Aminomethyl)-1,3,4-oxadiazol-2-yl]methyl]-2-(2-chlorophenyl)sulfanyl-N-[(4-cyanophenyl)methyl]acetamide] | 16 to 64 (≈ 37.4 to 150 µM) | > 64 |  | 1 to 16 (≈ 2.34 to 37.4 µM)
7 | N#Cc1ccc(CN(Cc2nnc(N)s2)C(=O)CSc2ccccc2Cl)cc1 [Compound No. 69, N-[(5-Amino-1,3,4-thiadiazol-2-yl)methyl]-2-(2-chlorophenyl)sulfanyl-N-[(4-cyanophenyl)methyl]acetamide] | 1 to 16 (≈ 2.33 to 37.2 µM) | > 64 |  | 1 to 16 (≈ 2.33 to 37.2 µM)
8 | N#Cc1ccc(CN(Cc2nnc(N)o2)C(=O)CSc2ncccc2Cl)cn1 [compound 12] | 1 to 16 (≈ 2.4 to 38.5 µM) | > 64 |  | < 1
9 | N#Cc1ccc(CN(Cc2nnc(N)o2)C(=O)CSc2ccccc2Cl)c(F)c1 [compound 13] | 1 to 16 (≈ 2.32 to 37 µM) | 16 to 64 (≈ 37 to 148 µM) | 1 to 16 (≈ 2.32 to 37 µM) | < 1
10 | N#Cc1ccc(CN(Cc2nnc(N)o2)C(=O)CSc2ccccc2Cl)cn1 [compound 14] | 1 to 16 (≈ 2.41 to 38.6 µM) | > 64 | 16 to 64 (≈ 38.6 to 154 µM) | < 1
11 | N#Cc1ccc(CN(Cc2nnc(N)o2)C(=O)COc2cccc(Cl)c2)c(F)c1 [compound 20] | 16 to 64 (≈ 38.5 to 154 µM) | > 64 | > 64 | 1 to 16 (≈ 2.4 to 38.5 µM)
12 | N#Cc1cc(F)c(CN(Cc2nnc(N)o2)C(=O)CSc2cccc(F)c2Cl)c(F)c1 [compound 25] | 1 to 16 (≈ 2.14 to 34.2 µM) | 1 to 16 (≈ 2.14 to 34.2 µM) | 1 to 16 (≈ 2.14 to 34.2 µM) | < 1
13 | N#Cc1cc(F)c(CN(Cc2nnc(N)o2)C(=O)CSc2cc(F)cc(F)c2Cl)c(F)c1 [compound 26] | < 1 | > 64 | 1 to 16 (≈ 2.06 to 32.9 µM) | < 1
14 | Nc1nnc(CN(Cc2ccc(=O)[nH]c2)C(=O)CSc2ccccc2Cl)o1 [compound 29] | > 64 | > 64 |  | 1 to 16 (≈ 2.46 to 39.4 µM)
15 | CCc1ccccc1OCC(=O)N(Cc1ccc(C#N)cc1)Cc1nnc(N)o1 [compound 32] | 1 to 16 (≈ 2.55 to 40.9 µM) | > 64 |  | < 1
16 | N#Cc1ccc(CN(Cc2nnc(N)o2)C(=O)COc2cccc(Cl)c2Cl)c(F)c1 [compound 34] | 16 to 64 (≈ 35.5 to 142 µM) | > 64 |  | < 1
17 | CCc1ccccc1OCC(=O)N(Cc1nnc(N)o1)Cc1ccc(C#N)cc1F [compound 37] | 1 to 16 (≈ 2.44 to 39.1 µM) | > 64 | 16 to 64 (≈ 39.1 to 156 µM) | < 1
18 | CCc1ccc(F)cc1OCC(=O)N(Cc1nnc(N)o1)Cc1ccc(C#N)cc1F [compound 38] | 1 to 16 (≈ 2.34 to 37.4 µM) | 16 to 64 (≈ 37.4 to 150 µM) | 16 to 64 (≈ 37.4 to 150 µM) | < 1
19 | N#Cc1ccc(CN(Cc2nnc(N)o2)C(=O)COc2ccccc2OC(F)(F)F)c(F)c1 [compound 39] | 16 to 64 (≈ 34.4 to 138 µM) | > 64 | > 64 | 1 to 16 (≈ 2.15 to 34.4 µM)
20 | CCc1c(F)cccc1OCC(=O)N(Cc1nnc(N)o1)Cc1ccc(C#N)cc1F [compound 41] | < 1 | > 64 | 1 to 16 (≈ 2.34 to 37.4 µM) | < 1
21 | CCc1ccccc1SCC(=O)N(Cc1nnc(N)o1)Cc1ccc(C#N)cc1F [compound 42] | 1 to 16 (≈ 2.35 to 37.6 µM) | 16 to 64 (≈ 37.6 to 150 µM) | 1 to 16 (≈ 2.35 to 37.6 µM) | < 1
22 | N#Cc1ccc(CN(Cc2c[nH]cn2)C(=O)CSc2ccccc2Cl)cc1 [compound 43] | > 64 | > 64 |  | 1 to 16 (≈ 2.52 to 40.3 µM)
23 | Nc1nnc(CN(Cc2ccc(S(N)(=O)=O)cc2)C(=O)CSc2ccccc2Cl)o1 [compound 47] | 16 to 64 (≈ 34.2 to 137 µM) | > 64 |  | < 1
24 | N#Cc1ccc(CN(Cc2nnc(N)o2)C(=O)CSc2cccc(F)c2Cl)cc1 [compound 52] | 1 to 16 (≈ 2.32 to 37 µM) | > 64 | 1 to 16 (≈ 2.32 to 37 µM) | < 1
25 | N#Cc1ccc(CN(Cc2nnc(N)o2)C(=O)CSc2cc(F)cc(F)c2Cl)c(F)c1 [compound 55] | < 1 | 1 to 16 (≈ 2.14 to 34.2 µM) | 1 to 16 (≈ 2.14 to 34.2 µM) | < 1
26 | N#Cc1ccc(CN(Cc2nnc(N)o2)C(=O)CSc2ccccc2OC(F)(F)F)c(F)c1 [compound 56] | 16 to 64 (≈ 33.2 to 133 µM) | > 64 | > 64 | < 1
